From patent US9018213B2, “Alicyclic[c] benzopyrone derivatives and uses thereof” (Huazhong University of Science & Technology, priority 2011, dated 2015) come the findings set out here.

Where two headings read alike, the source gives them in different places.

The target of one data set is 5HT1A receptor (Rattus norvegicus (Rat), UniProt P19327). Description: 5HT1A receptor binding assay (3H-8-OH-DPAT). Conditions: test compound final concentration 10^-5 M. The protocol:
Preparation of 5HT1A Membrane
Incubation at 37° C. was conducted for 10 min, the weight of the tubes were adjusted using a balance after incubation. […] Centrifugation was conducted and repeated 3 times.
Materials for the Receptor Binding Assay

For the next data set, the target named is D2 receptor (Rattus norvegicus (Rat), UniProt P61169). Nature of the data set: D2 receptor inhibition binding assay (3H-Spiperone). Conditions: read-out: D2 inhibition %.
A further data set has as its target 5HT2A receptor (Rattus norvegicus (Rat), UniProt P14842). Nature of the data set: 5HT2A receptor binding assay ([3H]-Ketanserin). The settings on record: read-out: 5HT2A inhibition %.
Data set [1] can be described thus: in vivo. Conditions: both sexes, mouse, in vivo, po. The procedure:
Limit Test of Sequential Assay
KM mice (half male and half female) were randomly divided into several groups (with 2-5 mice in each group), which were respectively the 2000 mg/kg groups for each compound, and the solvent group. 0.2 ml/10 g were administered intragastrically. The death of the animals in 3 days were observed. (In the case 3 or more animals survived in 3 days without notable abnormity in their life states, the observation was continued until the assay was completed in 7 days. In the case 3 or more animals died in 3 days, the median lethal dose method was used to determine the LD50).
Pre-Assay for the Median Lethal Dose Method
0.2 ml/10 g were administered intragastrically, and the death of the animals in 1-3 days were observed.

A short description of data set [2]: in vivo. The settings on record: both, Kunming (KM), mouse, po. The procedure:
Healthy mice of Kunming breed (with half male and half female, (22±2) g) were provided by Qinglongshan Animal Cultivation Center, Nanjing.
The durations for the mice to maintain the posture with the two forepaws on the bars were recorded, and 30 s of spasticity without moving was considered as the positive response. In the case the forepaws of the mice were not put down persistently, the observation was terminated at 60 s. The numbers of animals with positive response in each of the compound dosage groups were counted.

Another data set concerns mice of Kunming breed. Nature of the data set: MK-801 induced high activity. Conditions: Mus musculus; po, mice. It is filed as in vivo. The procedure: Healthy mice of Kunming breed (with half male and half female, (20±2) g) were provided by Qinglongshan Animal Cultivation Center, Nanjing.
Ascorbic acid was provided by Sinopharm Chemical Reagent Co. Ltd.
Tween 80, with the concentration of 10%.
Subsequently, the spontaneous activities of the mice of each group in 90 min were measured.

The next data set relates to KM mice. Description: Apomorphine induced clambering assay of mice. Conditions: for ED50: Mus musculus, po, read-out: apomorphine induced clambering ED50; for Scoring (value), apomorphine induced clambering: x ± s, n = 10. It is filed as in vivo. The procedure:
Apomorphine Induced Clambering Assay of Mice
Healthy KM mice (male, with body weight of 18-22 g) were provided by Qinglongshan Animal Cultivation Center, Nanjing.
Apomorphine provided by Sigma Company was dissolved in 0.9% NaCl (containing 0.1% vitamin C) before use, and was freshly formulated before use.
Vitamin C, F20061113, was provided by Sinopharm Chemical Reagent Co. Ltd.
Sodium chloride injection, H32026305, was provided by Xuzhou No. 5 Pharmaceutical Factory Co. Ltd.
Instruments: self-made clambering cage, chronograph.
Procedures: apomorphine induced clambering assay of mice
After 5 min of adaptation, the behaviors of the mice at 10-11, 20-21, and 30-31 min after the injection of apomorphine were observed and scored. Scoring criteria: 4 paws on the floor was scored as 0; 2 forepaws on the cage was scored as 1; and 4 paws on the cage was scored as 2.

Sequence of D2 receptor (P61169 whole entry): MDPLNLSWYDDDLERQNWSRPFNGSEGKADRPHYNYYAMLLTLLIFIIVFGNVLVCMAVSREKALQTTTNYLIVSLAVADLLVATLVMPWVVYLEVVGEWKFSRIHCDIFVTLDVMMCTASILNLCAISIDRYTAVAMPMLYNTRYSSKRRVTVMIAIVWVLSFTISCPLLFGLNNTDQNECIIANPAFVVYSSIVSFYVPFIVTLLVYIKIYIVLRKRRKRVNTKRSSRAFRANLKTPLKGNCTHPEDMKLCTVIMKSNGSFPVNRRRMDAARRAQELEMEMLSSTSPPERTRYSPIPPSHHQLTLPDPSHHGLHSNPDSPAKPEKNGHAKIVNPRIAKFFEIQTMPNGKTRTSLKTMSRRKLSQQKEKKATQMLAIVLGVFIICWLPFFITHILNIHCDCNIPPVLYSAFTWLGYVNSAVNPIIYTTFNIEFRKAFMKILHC
Sequence of 5HT1A receptor (P19327 whole entry): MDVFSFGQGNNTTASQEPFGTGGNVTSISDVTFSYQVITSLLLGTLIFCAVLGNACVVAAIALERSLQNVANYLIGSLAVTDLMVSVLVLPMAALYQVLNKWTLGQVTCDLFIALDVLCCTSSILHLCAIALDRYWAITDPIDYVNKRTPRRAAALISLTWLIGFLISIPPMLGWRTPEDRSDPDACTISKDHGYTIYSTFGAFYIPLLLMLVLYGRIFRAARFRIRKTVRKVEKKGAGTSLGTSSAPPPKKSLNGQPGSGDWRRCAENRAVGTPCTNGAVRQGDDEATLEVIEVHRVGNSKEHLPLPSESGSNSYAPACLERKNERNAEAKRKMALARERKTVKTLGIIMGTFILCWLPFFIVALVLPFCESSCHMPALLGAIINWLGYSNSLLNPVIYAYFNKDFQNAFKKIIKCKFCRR
Sequence of 5HT2A receptor (P14842 whole entry): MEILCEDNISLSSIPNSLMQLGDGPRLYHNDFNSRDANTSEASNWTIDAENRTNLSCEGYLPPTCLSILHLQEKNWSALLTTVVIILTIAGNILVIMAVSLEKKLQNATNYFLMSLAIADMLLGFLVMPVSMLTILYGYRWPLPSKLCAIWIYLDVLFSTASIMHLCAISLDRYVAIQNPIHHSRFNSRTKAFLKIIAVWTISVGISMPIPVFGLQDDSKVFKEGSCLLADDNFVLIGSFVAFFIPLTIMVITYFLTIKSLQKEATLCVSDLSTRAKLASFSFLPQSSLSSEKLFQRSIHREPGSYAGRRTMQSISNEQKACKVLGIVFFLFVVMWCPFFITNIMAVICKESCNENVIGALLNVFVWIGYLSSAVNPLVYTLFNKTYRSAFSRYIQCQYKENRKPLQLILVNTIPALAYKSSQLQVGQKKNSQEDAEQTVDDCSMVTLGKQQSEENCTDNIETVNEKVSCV
Procedure for D2 receptor: Rats were sacrificed by cervical dislocation on ice. Cerebral cortex was rapidly taken, and 2 cerebral cortexes were combined into a centrifuge tube, to which 3 ml of buffer (0.05 M Tris-HCl buffer, containing NaCl 120 mM, KCl 5 mM, MgCl2 1 mM, CaCl2 1 mM) was added, homogenization was conducted for 3-4 s at level 4 for four times, and then 5 ml of buffer was then added. The weight of the homogenized tubes were adjusted using a balance, and centrifugation was conducted at 12000 r, 4° C. for 20 min. The supernatant was discarded, and 3 ml of B solution was added. Vortex mixer was used for blending, and then 5 ml of B solution was added. Centrifugation was conducted and repeated 3 times. After the centrifugations, the supernatant was discarded, and the pellets were stored at −80° C. for future use.
Beckman LS-6500 Multi-function Liquid Scintillation Counter was used.
(1) The prepared membrane was first applied with appropriate amount of homogenized liquid, and homogenizer was used for evenly dispersing. 15 tubes were mixed into a 100 ml container, and appropriate amount of homogenized liquid was added to give 50 ml of membrane suspension, which was reserved for future use.
(2) 100 μL of membrane preparation and 100 μL of buffer were added into each reaction tube.
(3) 100 μL of homogenized liquid was added into the total binding tube (TB), 100 μL of Butaclamol (final concentration 10^−5 M) was added into the non-specific binding tube (NB), and 100 μL of the test compound (final concentration 10^−5 M) was added into the specific binding tube (SB) for each compound.
(5) Each of the reaction tubes was incubated at 37° C. for 20 min. After the reaction was completed, the bound ligands were rapidly filtered under reduced pressure, and the ice-chilled assay buffer was used for adequate washing. The filter was taken out and put into a 3 ml scintillation vial, and 2 ml of toluene scintillation solution was added and blended.
(6) The scintillation vials were put into Liquid Scintillation Counter for counting. Inhibitory rate (I %)=(Total binding tube cpm−compound cpm)/(Total binding tube cpm−non-specific binding tube cpm)×100%
Each assay for the compounds was conducted in duplicate.

Regarding `COc1ccccc1N1CCN(CCCCOc2ccc3c4c(c(=O)oc3c2Cl)CCC4)CC1` [Compound 13, 7-{4-[4-(2-methoxyphenyl)piperazin-1-yl]-butoxy}-6-chloro-2,3-dihydro-1H-cyclopenteno[c]benzopyran-4-one], the values for the inhibition at 10 µM on 5HT1A receptor, on D2 receptor and at 5HT2A receptor were 106%, 59.2% and 105%, respectively.
Take `COc1ccccc1N1CCN(CCCOc2ccc3c4c(c(=O)oc3c2)CCC4)CC1` [Compound 4, 7-{3-[4-(2-methoxyphenyl)piperazin-1-yl]-propoxy}-2,3-dihydro-1H-cyclopenteno[c]benzopyran-4-one]: the inhibition (as a rule, the drop in the measured response relative to a control, in per cent) at 10 µM was determined as 116% at 5HT1A receptor, 50.2% on D2 receptor and 112% at 5HT2A receptor.
Regarding `O=c1oc2cc(OCCCCN3CCC(c4noc5cc(F)ccc45)CC3)ccc2c2c1CCC2` [Compound 10, 7-{4-[4-(3-(6-fluoro-benzisoxazole)-1-piperidyl)-butoxy]}-2,3-dihydro-1H-cyclopenteno[c]benzopyran-4-one], the inhibition at 10 µM at 5HT1A receptor worked out at 42.5%; on D2 receptor, 5.7%; on 5HT2A receptor, 68.4%.
The corresponding values for `COc1ccccc1N1CCN(CCCCOc2ccc3c4c(c(=O)oc3c2C)CCC4)CC1` [Compound 11, 7-{4-[4-(2-methoxyphenyl)piperazin-1-yl]-butoxy}-6-methyl-2,3-dihydro-1H-cyclopenteno[c]benzopyran-4-one] are 106%, 59.2% and 105%.
For `O=C1CCc2ccc(OCCCCN3CCN(c4cccc(Cl)c4Cl)CC3)cc2N1` [aripiprazole], the LD50 (usually the dose expected to kill half of the subjects tested) in “in vivo [1]” (KM) is 93 mg/kg. Moreover, the results for the ED50 in the data set “in vivo [2]”, in the data set with mice of Kunming breed and with KM mice (mice) were 2.4 mg/kg, 0.12 mg/kg and 0.66 mg/kg, respectively. The “Scoring (value), apomorphine induced clambering” value (“Scoring (value)” below) in the data set with KM mice (dosage 0.3 mg/kg) was 4.50 ± 1.51; with KM mice (dosage 1 mg/kg), 1.5 ± 1.08; in the data set on KM mice (dosage 3 mg/kg) it was 2.30 ± 1.57; in the data set on KM mice (dosage 10 mg/kg), 0.20 ± 0.42.
Consider `O=c1oc2cc(OCCCN3CCN(c4cccc(Cl)c4Cl)CC3)ccc2c2c1CCC2` [Compound 2, 7-{3-[4-(2,3-dichlorophenyl)piperazin-1-yl]-propoxy}-2,3-dihydro-1H-cyclopenteno[c]benzopyran-4-one], for which the results for the inhibition at 10 µM at 5HT1A receptor, on D2 receptor and on 5HT2A receptor were 65.8%, 11.5% and 14.3%, respectively.
As for `COc1ccccc1N1CCN(CCCCOc2ccc3c4c(c(=O)oc3c2C)CCCC4)CC1` [Compound 20, 3-{4-[4-(2-methoxyphenyl)piperazin-1-yl]-butoxy}-4-methyl-7,8,9,10-tetrahydrobenzo[c]benzopyran-6-one], the results for the inhibition at 10 µM at 5HT1A receptor, at D2 receptor and on 5HT2A receptor were 100%, 66.4% and 90.7%, respectively.
Consider `O=c1oc2cc(OCCCCN3CCC(c4noc5cc(F)ccc45)CC3)ccc2c2c1CCCC2` [Compound 18, 3-{4-[4-(3-(6-fluoro-benzisoxazole)-1-piperidyl)-butoxy]}-7,8,9,10-tetrahydrobenzo[c]benzopyran-6-one], for which the figures for the inhibition at 10 µM at 5HT1A receptor, on D2 receptor and at 5HT2A receptor were 46.6%, 80.6% and 114%, respectively.
For `O=c1oc2cc(OCCCN3CCN(c4cccc(C(F)(F)F)c4)CC3)ccc2c2c1CCC2` [Compound 3, 7-{3-[4-(3-trifluoromethylphenyl)piperazin-1-yl]-propoxy}-2,3-dihydro-1H-cyclopenteno[c]benzopyran-4-one], the values for the inhibition at 10 µM on 5HT1A receptor, at D2 receptor and on 5HT2A receptor were 104%, 17.2% and 62.2%, respectively.
For `Cc1cccc(N2CCN(CCCOc3ccc4c5c(c(=O)oc4c3)CCC5)CC2)c1C` [Compound 1, 7-{3-[4-(2,3-dimethylphenyl)piperazin-1-yl]-propoxy}-2,3-dihydro-1H-cyclopenteno[c]benzopyran-4-one], in that order: 103%, 3.3% and 82.9%.
On to `O=c1oc2cc(OCCCCN3CCC(c4noc5cc(F)ccc45)CC3)c(Cl)cc2c2c1CCC2` [Compound 16, 7-{4-[4-(3-(6-fluoro-benzisoxazole)-1-piperidyl)-butoxy]}-8-chloro-2,3-dihydro-1H-cyclopenteno[c]benzopyran-4-one], for which the inhibition at 10 µM on 5HT1A receptor worked out at 55.3%; on D2 receptor it was 51.5%; on 5HT2A receptor, 88.4%.
Turning to `O=C1Cc2cc(CCN3CCN(c4nsc5ccccc45)CC3)c(Cl)cc2N1` [ziprasidone], the LD50 in the data set “in vivo [1]” (mice, single intragastric administration, read-out: LD50) is over 2000 mg/kg. In addition, the ED50 (usually the dose at which the effect has come halfway, by size or by number of responders) in “in vivo [2]” was 30.4 mg/kg; in the data set on mice of Kunming breed it was 0.56 mg/kg; with KM mice (mice), 0.37 mg/kg. Besides, the “Scoring (value)” value in the data set with KM mice (dosage 0.3 mg/kg) is on record as 4.40 ± 2.01; with KM mice (dosage 1 mg/kg) it was 3.80 ± 1.40; with KM mice (dosage 3 mg/kg) it was 0.70 ± 1.16; in the data set on KM mice (dosage 10 mg/kg), 0.40 ± 0.84.
Take `O=c1oc2cc(OCCCCN3CCN(c4ccc(F)cc4)CC3)ccc2c2c1CCC2` [Compound 9, 7-{4-[4-(4-fluorophenyl)piperazin-1-yl]-butoxy}-2,3-dihydro-1H-cyclopenteno[c]benzopyran-4-one]: the inhibition at 10 µM on 5HT1A receptor worked out at 104%; on D2 receptor it was 15.2%; on 5HT2A receptor, 119%.
For `COc1ccccc1N1CCN(CCCCOc2cc3oc(=O)c4c(c3cc2Cl)CCC4)CC1` [Compound 17, 7-{4-[4-(2-methoxyphenyl)piperazin-1-yl-butoxy]}-8-chloro-2,3-dihydro-1H-cyclopenteno[c]benzopyran-4-one], the figures for the inhibition at 10 µM at 5HT1A receptor, on D2 receptor and on 5HT2A receptor were 115%, 15.4% and 104%, respectively.
Regarding `COc1ccc(N2CCN(CCCCOc3ccc4c5c(c(=O)oc4c3)CCC5)CC2)cc1` [Compound 8, 7-{4-[4-(4-methoxyphenyl)piperazin-1-yl]-butoxy}-2,3-dihydro-1H-cyclopenteno[c]benzopyran-4-one], the inhibition at 10 µM at 5HT1A receptor turned out to be 62.8%; on D2 receptor, 26.4%; at 5HT2A receptor, 23.4%.
In the case of `Cc1cc2c(s1)Nc1ccccc1N=C2N1CCN(C)CC1` [olanzapine], the ED50 with KM mice was determined as 0.11 mg/kg. The “Scoring (value)” value in the data set on KM mice (dosage 0.1 mg/kg) turned out to be 5.00 ± 1.25; with KM mice (dosage 0.3 mg/kg), 2.10 ± 1.10; with KM mice (dosage 1 mg/kg) it was 1.30 ± 1.25; in the data set with KM mice (dosage 3 mg/kg) it was 0.30 ± 0.48.
Turning to `Cc1c(OCCCCN2CCN(c3nsc4ccccc34)CC2)ccc2c3c(c(=O)oc12)CCC3` [Compound 12, 7-{4-[4-(3-(1,2-benzisothiazole)-1-piperazinyl)-butoxy]}-6-methyl-2,3-dihydro-1H-cyclopenteno[c]benzopyran-4-one], the results for the inhibition at 10 µM at 5HT1A receptor, on D2 receptor and on 5HT2A receptor were 104%, 61.2% and 107%, respectively.
As to `Cc1nc2n(c(=O)c1CCN1CCC(c3noc4cc(F)ccc34)CC1)CCCC2` [risperidone], in the data set on KM mice, the ED50 came to 0.015 mg/kg. Also, in the data set with KM mice (compared to the model group), the “effect on apomorphine induced clambering symptoms (in words)” value is reported as “effectively improve”. Moreover, the “Scoring (value)” value in the data set with KM mice (dosage 0.01 mg/kg) turned out to be 5.20 ± 1.87; in the data set on KM mice (dosage 0.03 mg/kg) it was 2.70 ± 1.77; in the data set with KM mice (dosage 0.1 mg/kg), 1.80 ± 1.32; with KM mice (dosage 0.3 mg/kg), 0.20 ± 0.63.
For the molecule `COc1ccccc1N1CCN(CCCOc2ccc3c4c(c(=O)oc3c2C)CCC4)CC1` [Compound 6, 7-{3-[4-(2-methoxyphenyl)piperazin-1-yl]-propoxy}-6-methyl-2,3-dihydro-1H-cyclopenteno[c]benzopyran-4-one], the inhibition at 10 µM stood at 95.5% on 5HT1A receptor, 4.7% at D2 receptor and 75.4% at 5HT2A receptor.
